Measurements taken from US8217059B2, “Compositions and methods for treating spasticity” (Allergan, Inc., priority 2009, dated 2012).
“Also recorded” adds a separate entry of the source.

Columns and labels:
rats with spasticity [1] = assay: Peripheral muscle resistance during computer-controlled ankle flexion in rats with ischemia-induced spasticity; format: in vivo
Method: (§1) After ischemia, animals with developed paraplegia were selected and maintained for 3-12 months. To identify the presence of spasticity, the following tests were performed at 7-14 day intervals as described below: 1) tonic EMG activity recorded from gastrocnemius muscle (i.e., stimulus-independent changes in EMG activity); 2) peripheral muscle resistance measurement during a computer controlled ankle-flexion and simultaneous EMG recording from gastrocnemius muscle (i.e., stimulus-dependent changes in EMG activity); and 3) motor evoked potential recording.
Peripheral muscle resistance was measured using a previously described system (O. Kakinohana, Neuroscience 1:141(3) (2006)). Briefly, animals are placed into a plastic restrainer and one hind paw attached by a tape to a metal plate driven by a computer-controlled stepping motor. The metal plate is equipped with a digital force transducer. The resistance of the ankle to flexion was measured during motor-driven ankle flexion and data collected directly to the computer.

rats with spasticity [2] = assay: Electromyographic (EMG) recording from gastrocnemius muscle during ankle flexion in rats with ischemia-induced spasticity; format: in vivo; conditions: 100 mg/kg i.p., FIG. 1
Method: as §1
To record EMGs, two silver needle (22 G) electrodes (distance between recording electrodes=1 cm) were placed percutaneously into the gastrocnemius muscle. Electrodes were connected to a preamplifier (HS4 fiber optic BIOAMP HEADSTAGE, WPI) and amplified using DB4 fiber optic amplifier (WPI). Animals were then allowed to acclimate for 10 min and the EMG responses recorded before, during and after ankle flexion. Recorded signal was digitized by the Instrunet Model 100 Network A/D, acquired by the Instrunet Model 200 PCI controller (Omega, USA) and stored in PC for analysis.

Structure (SMILES): N[C@@H](C(=O)N1CCCC1)[C@@H](O)c1ccncc1 [Compound A]
- spasticity associated with transient ischemia of the spinal cord (rats with spasticity [1]; 100 mg/kg): inhibits the spasticity
- muscle resistance during the period of ankle flexion (rats with spasticity [1]; 100 mg/kg of Compound A, spasticity after transient spinal cord ischemia): decrease in muscle resistance
- EMG response / EMG activity (rats with spasticity [2]): corresponding changes in EMG activity; also recorded: inhibits EMG response
